Data set [1] in a line: UVvis maximum absorption wavelength of selected dyes (Table 1). In kind it is physicochemical. Conditions: source not stated.
A short description of data set [2]: Spectroscopic characterization of SSIB-Cy7.5 in SAIB or LOIB markers. It counts as physicochemical.

This note sets out measurements from US20210275692A1, “SOLUTION COMPRISING FLUORESCENT DYE AS FIDUCIAL MARKER” (DANMARKS TEKNISKE UNIVERSITET, priority 2018, published 2021).

As for “2,11,20,29-Tetra-tert-butyl-2,3-naphthalocyanine”, the UVvis maximum in data set [1] came to 712 nm.

Turning to “6′-(Cyanine 7.5)-Isobutyric Sucrose [SSIB-Cy7.5]”, in data set [2] (0.01% w/w in LOIB:xSAIB:EtOH:D&Cv2), the “broad emission peak centre” value is 845 nm. Further, in data set [2] (SAIB:xSAIB:EtOH 70:10:20), the “dye concentration up to which emission intensity increased (then self-quenching)” value is on record as 0.003 % w/w.

Compound `CCCCOc1ccc(OCCCC)c2c1-c1nc3nc(nc4[nH]c([nH]c5nc(nc-2n1)-c1c(OCCCC)ccc(OCCCC)c1-5)c1c(OCCCC)ccc(OCCCC)c41)-c1c(OCCCC)ccc(OCCCC)c1-3` [1,4,8,11,15,18,22,25-Octabutoxy-29H,31H-phthalocyanine] came in with a UVvis maximum in data set [1] of 762 nm. On the same count and under the same terms, for `CCC1=C(CC)c2cc3[nH]c(cc4nc(cc5[nH]c(cc1n2)c(CC)c5CC)C(CC)=C4CC)c(CC)c3CC` [2,3,7,8,12,13,17,18-Octaethyl-21H,23H-porphine] the value was 401 nm; for `CCCCCCCCOc1cc2c(cc1OCCCCCCCC)-c1nc-2nc2[nH]c(nc3nc(nc4[nH]c(n1)c1cc(OCCCCCCCC)c(OCCCCCCCC)cc41)-c1cc(OCCCCCCCC)c(OCCCCCCCC)cc1-3)c1cc(OCCCCCCCC)c(OCCCCCCCC)cc21` [2,3,9,10,16,17,23,24-Octakis(octyloxy)-29H,31H-phthalocyanine], 701 nm. In data set [1], `CC(C)(C)c1ccc2c(c1)-c1nc3nc(nc4[nH]c(nc5[nH]c(nc-2n1)c1cc(C(C)(C)C)ccc51)c1cc(C(C)(C)C)ccc41)-c1ccc(C(C)(C)C)cc1-3` [2,9,16,23-Tetra-tert-butyl-29H,31H-phthalocyanine] showed a UVvis maximum of 696 nm.

Turning to `CCCCOc1c2c(c(OCCCC)c3ccccc13)-c1nc-2nc2[nH]c(nc3nc(nc4[nH]c(n1)c1c(OCCCC)c5ccccc5c(OCCCC)c41)-c1c-3c(OCCCC)c3ccccc3c1OCCCC)c1c(OCCCC)c3ccccc3c(OCCCC)c21` [5,9,14,18,23,27,32,36-Octabutoxy-2,3-naphthalocyanine], in data set [1], the UVvis maximum is 784 nm.

For `C1=Cc2nc1c(-c1ccccc1)c1ccc([nH]1)c(-c1ccccc1)c1nc(c(-c3ccccc3)c3ccc([nH]3)c2-c2ccccc2)C=C1` [5,10,15,20-Tetraphenyl-21H,23H-porphine], the UVvis maximum in data set [1] worked out at 514 nm. `C#CCNC(=O)CCCCCN1C(=CC=CC=CC2=[N+](C)c3ccccc3C2(C)C)C(C)(C)c2ccccc21.[Cl-]` [Cy5-alkyne] returned a UVvis maximum in data set [1] of 646 nm.

`C#CCNC(=O)CCCCCN1C(=CC=CC=CC2=[N+](C)c3ccc4ccccc4c3C2(C)C)C(C)(C)c2c1ccc1ccccc21.[Cl-]` [Cy5.5-alkyne] came in with a UVvis maximum in data set [1] of 684 nm. In data set [1], `C#CCNC(=O)CCCCCN1/C(=C/C=C2C=C(/C=C/C3=[N+](C)c4ccc5ccccc5c4C3(C)C)CCC/2)C(C)(C)c2c1ccc1ccccc21.[Cl-]` [Cy7.5-alkyne] displayed a UVvis maximum of 788 nm.

On to `Cc1ccc(Nc2ccc(O)c3c2C(=O)c2ccccc2C3=O)cc1` [D&Cv2], for which, in data set [2] (UVvis in LOIB:xSAIB:EtOH:D&Cv2, 0.1% w/w D&Cv2, 0.01% w/w SSIB-Cy7.5), the absorption peak is recorded as 590 nm. Regarding `c1ccc2c(c1)-c1nc-2nc2[nH]c(nc3nc(nc4[nH]c(n1)c1ccccc41)-c1ccccc1-3)c1ccccc21` [Phthalocyanine], the UVvis maximum in data set [1] was 698 nm.

In turn, Cy7-alkyne gave a UVvis maximum in data set [1] of 750 nm.
